Key:
[1] = storage of aqueous compositions; format: physicochemical; details: six months of storage; water converts aminopterin to folic acid
Description: Because of their ease of administration, tablets and capsules represent the most advantageous oral dosage form in adults, in which case solid pharmaceutical carriers are employed. If desired, tablets may be coated by standard aqueous or nonaqueous techniques. The parenteral dosage form can consist of a sterile solution of the active ingredient, either in its free or salt form, in physiological buffer or sterile water. In addition, parenteral solutions can contain preservatives such as benzalkonium chloride, methyl- or propyl-paraben and chlorobutanol. Suitable pharmaceutical carriers are described in Remington's Pharmaceutical Sciences, a standard reference text in this field. […] Accordingly, such aqueous compositions are best stored desiccated and hydrated within several hours to several days prior to patient administration.

ma104 cells = experiment: adenosine release from ma104 cells; format: cell-based; details: 8 hours incubation
Description: Various concentrations of aminopterin were incubated with ma104 cells for 8 hours, and the release of adenosine measured (FIG. 5).

[2] = biological target: T1, partially purified chicken liver DHFR (Gallus gallus, UniProt P00378); experiment: radioligand DHFR binding assay
T1 sequence (P00378 1-189): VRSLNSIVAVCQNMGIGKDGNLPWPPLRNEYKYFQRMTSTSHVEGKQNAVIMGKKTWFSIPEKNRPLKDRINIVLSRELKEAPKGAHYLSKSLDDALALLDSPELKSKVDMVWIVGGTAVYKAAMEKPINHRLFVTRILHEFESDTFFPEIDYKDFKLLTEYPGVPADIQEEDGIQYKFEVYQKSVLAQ
Description: 16:1458, 1998]. […] After the standard curve is established, a portion of the 200 μM supernatant prepared above for an aminopterin tablet is further diluted 10,000 using two serial 100-fold dilutions with water to provide an approximately 20 nM solution of aminopterin. The DHFR assay is performed with 100 μL of the 20 nM solution, as well as several 2-fold serial dilutions, and the result expressed as pmol/ml aminopterin. The total number of pmol of aminopterin is calculated using the relationship, pmol/ml×10,000×11.35. The total number of mg in the tablet is then calculated using the relationship, total pmol×(10^−6 μmole/pmol)×0.44 mg/μmole.

psoriasis = details: 329 patients, schedules of the 1955 study; cited from earlier work
[3] = test system: chronic progressive multiple sclerosis; experiment: randomized, placebo-controlled clinical trial in chronic progressive multiple sclerosis; format: in vivo, human
Description: A prophetic randomized, double-blinded, placebo-controlled, clinical trial of low-dose, weekly, oral aminopterin is performed in 60 patients with clinically definite chronic progressive multiple sclerosis (MS) attending a referral-based outpatient MS clinic. Study patients are 21 to 60 years old with a disease duration of longer than 1 year. Patients' Expanded Disability Status Scale scores were 3.0 to 6.5 (ambulatory with moderate disability). Patients are first stratified by Expanded Disability Status Scale scores, 3.0 to 5.5 and 6.0 to 6.5, and then were randomized to receive aminopterin or placebo treatment. Treatment consists of weekly, oral, low-dose (1.0-2.0 mg) aminopterin or placebo for 2 years, followed by observation for as long as 1 year. A composite outcome measurement instrument is used and consists of (1) Expanded Disability Status Scale (EDSS), (2) ambulation index, (3) Box and Block Test, and (4) 9-Hole Peg Test. Failure of therapy is indicated by a designated change that is sustained for more than 2 months in one or more components of this composite measure.

adjuvant arthritis = details: cumulative weekly doses of 0.12 mg/kg; cited from earlier work
dermal inflammation = details: cumulative weekly doses of 0.35 mg/kg; cited from earlier work

With `Nc1nc(N)c2nc(CNc3ccc(C(=O)N[C@@H](CCC(=O)O)C(=O)O)cc3)cnc2n1` [aminopterin, 4-amino-pteroyl-L-glutamic acid] the “stability of parenteral, oral liquid or other aqueous compositions” value [1] was “accumulate folic acid to undesirable levels”, the EC50 (ma104 cells) was 0.5 nM and the “displacement of 3H-methotrexate and binding to DHFR, aminopterin vs methotrexate” value [2] was “equivalent”. The “overall incidence of toxicity” value (psoriasis) was 21%, the “toxicity in the treatment group” value ([3]; weekly oral 1.0-2.0 mg for 2 years) was “absence of clinically significant toxicity” and the “progression of impairment (EDSS, ambulation index, Box and Block Test, 9-Hole Peg Test or composite)” value ([3]; weekly oral 1.0-2.0 mg for 2 years vs placebo) was “Significantly less progression of impairment”. The efficacy (adjuvant arthritis) was “demonstrated the efficacy”, the toxicity (adjuvant arthritis) was “severe toxicity” and the efficacy (dermal inflammation) was “demonstrated the efficacy”. The toxicity (dermal inflammation) was “the animals became severely leucopenic and one subject died”.
